The source of these data is publication PMC12040169 (PLOS Biology, 2025).

Usually viability stands for a read-out of living cells in per cent, often relative to untreated cells.

The data set is described as follows: in vitro. The settings on record: human, hela cells, % viability.
With `COC(=O)c1c(C)n[nH]c1COc1ccccc1` [CBK057823], the viability at 28.5 h, 10 µM was 92.1%.

For the compound `O=C(CN1CCCN(c2ncc(C(F)(F)F)cc2Cl)CC1)Nc1c(F)cccc1F` [CBK074636], the viability at 28.5 h, 10 µM is 92.5%.

Take `Cc1nc2c(c(=O)[nH]1)CC[C@@H]1CN(C(=O)c3occ4ccccc34)C[C@H]21` [CBK284408]: the viability at 28.5 h, 10 µM was 101%.

For the compound `Cc1c(Cl)cccc1NC(=O)CSCc1cc(=O)[nH][nH]1` [CBK268199], the viability at 28.5 h, 10 µM was 98.1%.

For the compound `Nc1nc(SCC(=O)c2ccc3c(c2)OCCO3)n[nH]1` [CBK266554], the viability at 28.5 h, 10 µM is 107%.

For the compound `O=C(O)CCc1ccc(-c2ccc(Br)cc2)n1-c1ccccc1O` [CBK131892], the viability at 28.5 h, 10 µM turned out to be 93.9%.

For the compound `CC(C)(C)OC(=O)NCCNCc1ccccc1Br` [CBK056693], the viability at 28.5 h, 10 µM stood at 92.1%.

Consider `COCCn1c(-c2ccc(CN3CCCC3)cc2)cc2onc(C)c2c1=O` [CBK050385C], for which the viability at 28.5 h, 10 µM was found to be 104%.

For the compound `O=C(Nc1cc(-c2nc3ncccc3o2)ccc1Cl)c1ccco1` [CBK269730], the viability at 28.5 h, 10 µM was 104%.

`N#Cc1ccc(C(=O)N2C[C@@H]3C[C@H](C2)c2ccc(-c4cccc(C#N)c4)c(=O)n2C3)cc1` [CBK289187]: the viability at 28.5 h, 10 µM worked out at 101%.

Consider `COc1cc([C@@]23CC[C@@H](NC(=O)Nc4cccc(Cl)c4)C[C@@H]2N(C)CC3)cc(OC)c1OC` [CBK039212], for which the viability at 28.5 h, 10 µM came to 93.7%.

For `CCCCOc1ccc(S(=O)(=O)N2CCN(c3cccc(C)c3C)CC2)cc1` [CBK099293], the viability at 28.5 h, 10 µM came out at 114%.

Regarding `CC[C@H](Cn1c(=O)oc2ccccc21)NC(=O)c1ccco1` [CBK284541], the viability at 28.5 h, 10 µM was determined as 86.7%.

With `O=C(Nc1ccc(N2CCNCC2)nc1)C1(c2ccccc2)CCCCC1` [CBK028269T], the viability at 28.5 h, 10 µM turned out to be 97.8%.

For the compound `Cc1cc2c(s1)c1cnn(CC(=O)OC(C)C)c(=O)c1n2C` [CBK284247], the viability at 28.5 h, 10 µM turned out to be 102%.

As for `CS(=O)(=O)Nc1cc(-c2noc([C@@H]3CCCN3Cc3ccc(S(C)(=O)=O)cc3)n2)ccn1` [CBK288890], the viability at 28.5 h, 10 µM was 90.7%.

`CC(=O)N1CCC2(CCCC[C@H]3CN(C(=O)CCC(C)C)CC[C@@H]3NC(=O)CNC2=O)CC1` [CBK292124]: the viability at 28.5 h, 10 µM came to 103%.

In the case of `O=[N+]([O-])c1cccc(-c2ccc(-c3nn4c(Cc5ccccc5)nnc4s3)o2)c1` [CBK267310], the viability at 28.5 h, 10 µM worked out at 86.4%.

As to `CCCN[C@@H]1CCc2cc(CNC(=O)c3ccc(C#N)cc3)ccc2C1` [CBK010211C], the viability at 28.5 h, 10 µM stood at 101%.

Consider `CCC(=O)N1CCCc2cc(C(O)CN3CCC(C)CC3)ccc21` (stereo not drawn) [CBK282144], for which the viability at 28.5 h, 10 µM came out at 105%.

For `CC(C)(C)OC(=O)Nc1cc(Cl)ccc1C(=O)O` [CBK200024], the viability at 28.5 h, 10 µM is 103%.

On to `c1ccc2c(c1)ccn2Cc1ccc(-c2nccnc2-c2nnn[nH]2)cc1` [CBK050821], for which the viability at 28.5 h, 10 µM stood at 107%.

For the compound `CC(NC(=O)c1cn(-c2ccccc2)nc1-c1cccnc1)c1ccccn1` (stereo not drawn) [CBK295660], the viability at 28.5 h, 10 µM stood at 105%.

For the compound `CC(=O)Nc1ccccc1/C=C/c1ccc2c(C)cc(C)c(O)c2n1` [CBK261937], the viability at 28.5 h, 10 µM came to 106%.

As to `COc1cc2nc(NC(=O)c3ccccc3)sc2cc1OC` [CBK287701], the viability at 28.5 h, 10 µM came to 82.3%.

For `Cc1nn(C)cc1C(=O)NC(Cc1ccsc1)c1cccnc1` (stereo not drawn) [CBK285392], the viability at 28.5 h, 10 µM worked out at 109%.

Regarding `NS(=O)(=O)c1ccc(NC(=S)NNC(=O)C2c3ccccc3Oc3ccccc32)cc1` [CBK267024], the viability at 28.5 h, 10 µM is 99.2%.

As to `Cc1[nH]nc(-c2ccc(OCc3cnn(-c4ccccc4)c3)cc2O)c1Oc1ccc(Cl)cc1` [CBK264939], the viability at 28.5 h, 10 µM was determined as 86.8%.

Turning to `Cc1nn(C)c(C)c1CCc1nc(CN2CCN(C)CC2)no1` [CBK306510], the viability at 28.5 h, 10 µM came to 110%.

Take `CC(=O)Nc1cccc(-c2nccnc2NCc2ccc3c(c2)OCO3)c1` [CBK037972]: the viability at 28.5 h, 10 µM was 97.1%.

As to `CC(O)c1ccc(-c2ccc(CNCCCN3CCOCC3)o2)cc1` (stereo not drawn) [CBK278178C], the viability at 28.5 h, 10 µM was determined as 95.4%.

As to `CN1CCN(CC(=O)Nc2cc(C(F)(F)F)ccc2Cl)C(C)(C)C1` [CBK306363], the viability at 28.5 h, 10 µM is 85.8%.

Take `OCCC1CCCCN1c1cncc(C2CCOC2)n1` (stereo not drawn) [CBK066127]: the viability at 28.5 h, 10 µM is 101%.

`COc1ccccc1C(=O)Nc1ccc(Cl)c(C(=O)O)c1` [CBK287034]: the viability at 28.5 h, 10 µM was 82.1%.

Take `COCc1cc(-c2ccc(C(=O)N3CCN(C)CC3)nc2)ccc1OCC1CCN(C(=O)OC(C)(C)C)CC1` [CBK174511]: the viability at 28.5 h, 10 µM came out at 84%.

In the case of `COc1ccc2c(c1)C1(CC(=O)N(C)C1=O)C(=O)N2C` (stereo not drawn) [CBK075146], the viability at 28.5 h, 10 µM was found to be 115%.

As for `O=C(O)C=Cc1cn(-c2ccccc2)nc1-c1ccc(-c2ccc([N+](=O)[O-])cc2)o1` [CBK296088], the viability at 28.5 h, 10 µM turned out to be 105%.

As to `C=CCNC(=O)N[C@H]1[C@H](O)[C@@H](Oc2ccccc2)[C@@H]2OC[C@H]1O2` [CBK288812], the viability at 28.5 h, 10 µM is 90.5%.

For the compound `CS(=O)(=O)N(CC(=O)Nc1ccc(S(=O)(=O)N2CCCCC2)cc1)c1ccc2c(c1)OCO2` [CBK268189], the viability at 28.5 h, 10 µM amounted to 96.4%.

Regarding `C[C@]12CN(C3CCSC3)C[C@H]1C(=O)Nc1ccccc1C(=O)N2` (stereo partly drawn) [CBK284788], the viability at 28.5 h, 10 µM is 90.8%.

Consider `CC(C)CC(=O)NCCn1nc(-c2ccccc2F)cc1CN(C)C` [CBK282005], for which the viability at 28.5 h, 10 µM was 97.4%.

As for `Clc1cc(-c2cnc3ccccc3n2)c(Cl)s1` [CBK006186], the viability at 28.5 h, 10 µM amounted to 85.4%.

Turning to `COc1ccc(CCN(Cc2cccnc2)CC(O)COc2cccc3c2CCCC3)cc1` (stereo not drawn) [CBK024545T], the viability at 28.5 h, 10 µM worked out at 92%.

For the compound `CCOC(=O)C1CCN(S(=O)(=O)c2ccc(NC(C)=O)c(Cl)c2)CC1` [CBK043748], the viability at 28.5 h, 10 µM amounted to 93.5%.

With `Cc1cccc(C(=O)Nc2cccc(OCC(=O)O)c2)c1` [CBK268599], the viability at 28.5 h, 10 µM turned out to be 114%.

Regarding `CC1CCc2c(sc3ncnc(SC(C)C(=O)OC4CCCCC4)c23)C1` (stereo not drawn) [CBK265050], the viability at 28.5 h, 10 µM was 104%.

On to `O=C(NCCCC1CCOC1)c1cc2ccc(F)cc2[nH]1` (stereo not drawn) [CBK283213], for which the viability at 28.5 h, 10 µM is 110%.

With `CSc1ccc(-n2ncc(-c3ccc(Cl)cc3)n2)cc1` [CBK112782], the viability at 28.5 h, 10 µM was 84%.

Turning to `O=C(Cc1ccccc1)Nc1ncc(Cc2ccccc2)s1` [CBK287322], the viability at 28.5 h, 10 µM came out at 95.6%.

Take `O=C(NCC1COc2ccccc2O1)c1ccc2[nH]ccc2c1` (stereo not drawn) [CBK149054]: the viability at 28.5 h, 10 µM was found to be 91.2%.

Turning to `COc1cc(/C=C2\C(=O)N(c3ccccc3Cl)N=C2c2ccccc2)ccc1O` [CBK265698], the viability at 28.5 h, 10 µM was 82.8%.

As for `C1=C(CN2CCn3nc(CNc4cnccn4)cc3C2)CCCC1` [CBK307406], the viability at 28.5 h, 10 µM came to 86.1%.

For the compound `NC(=O)c1ccc(C#Cc2ccccc2)o1` [CBK009809], the viability at 28.5 h, 10 µM amounted to 94.8%.

For the compound `CCOC(=O)CNS(=O)(=O)c1ccc(C(F)(F)F)cc1[N+](=O)[O-]` [CBK034446], the viability at 28.5 h, 10 µM is 102%.

Turning to `CCOc1ccc(S(=O)(=O)NCCOC)cc1Cl` [CBK270251], the viability at 28.5 h, 10 µM worked out at 91.5%.

With `NC1CCC(N(CCc2ccccc2)C(=O)Nc2ccc3c(c2)OCO3)CC1` (stereo not drawn) [CBK000480C], the viability at 28.5 h, 10 µM was found to be 83.1%.

On to `CN(CCCc1cc(-c2cccc(F)c2)n[nH]1)C(=O)c1cnn(C)c1` [CBK305745], for which the viability at 28.5 h, 10 µM came to 86.6%.

Take `CCS(=O)(=O)N1CC2CCCC(O)(c3cccc(F)c3)C2C1` (stereo not drawn) [CBK283108]: the viability at 28.5 h, 10 µM is 99.3%.

`CC(=O)NCCNC(=O)c1cc(-c2cccc(S(C)(=O)=O)c2)cnc1NCC1CC1` [CBK076351]: the viability at 28.5 h, 10 µM came to 93.9%.

In the case of `COc1cc(CNc2nc(-c3ccc(C(C)(C)C)cc3)cn3ccnc23)cc(OC)c1OC` [CBK066615], the viability at 28.5 h, 10 µM came out at 99.3%.

Turning to `OCCN(CCO)c1cncc(-c2ccc(F)c(Cl)c2)n1` [CBK066015], the viability at 28.5 h, 10 µM was 96.3%.

For `O=C(O)c1cc(S(=O)(=O)Nc2cc(-c3ccco3)n[nH]2)c(F)cc1Cl` [CBK067292], the viability at 28.5 h, 10 µM is 92.6%.

`CN1CCOC(CNCc2ccc(OCC(N)=O)cc2)C1` (stereo not drawn) [CBK304830]: the viability at 28.5 h, 10 µM was 102%.

As for `Cc1occc1C(=O)Nc1nc(CC(=O)N(C)Cc2ccsc2)cs1` [CBK305631], the viability at 28.5 h, 10 µM was 83.8%.

Take `c1cnc(OC2CCN(CC3CCCCC3)CC2)c(OCCN2CCOCC2)n1` [CBK082941T]: the viability at 28.5 h, 10 µM worked out at 87.3%.

For the compound `O[C@@H]1C[C@@H](c2nc(-c3ccccn3)no2)N(Cc2ccccc2)C1` [CBK288900], the viability at 28.5 h, 10 µM was 81.3%.

In the case of `COc1cc(Nc2nc(-c3ccc4[nH]ccc4c3)cn3ccnc23)cc(OC)c1OC` [CBK038069], the viability at 28.5 h, 10 µM was found to be 95.5%.

In the case of `COc1nccnc1-c1ccc(C)c(C)c1` [CBK106853], the viability at 28.5 h, 10 µM worked out at 88.7%.

`O=C(NNC(=O)C1CCN(S(=O)(=O)c2ccc(Br)cc2)CC1)NC12CC3CC(CC(C3)C1)C2` [CBK266907]: the viability at 28.5 h, 10 µM is 94.5%.

For `COc1ccccc1C(C)N(C)CCC(=O)Nc1cc(C)on1` (stereo not drawn) [CBK305098], the viability at 28.5 h, 10 µM stood at 94.1%.

Consider `O=C(CNC(=O)c1ccccc1F)N/N=C/c1cccs1` [CBK261953], for which the viability at 28.5 h, 10 µM was 97.8%.

Take `COc1cc(C(=O)NC(C)C(=O)NN)cc(OC)c1OC` (stereo not drawn) [CBK262609]: the viability at 28.5 h, 10 µM stood at 106%.

With `N#Cc1c(SCC(=O)N2CCc3ccccc3C2)nsc1SCC(=O)N1CCc2ccccc2C1` [CBK267453], the viability at 28.5 h, 10 µM is 93.6%.

Take `CCS(=O)(=O)c1ccc2oc([C@H]3CCN(C(=O)C4CCCCC4)C3)nc2c1` [CBK289381]: the viability at 28.5 h, 10 µM stood at 104%.

Turning to `COc1cccc(CN2CCC3(CCCNC3=O)CC2)c1` [CBK284824], the viability at 28.5 h, 10 µM was found to be 96.6%.

On to `CC1(C)CC(=O)C2=C(C1)NC(Nc1nc3ccccc3s1)=NC2c1cccnc1` (stereo not drawn) [CBK270025], for which the viability at 28.5 h, 10 µM amounted to 99.4%.

For `O=C(NCCc1c[nH]c2ccccc12)c1cc(Br)cnc1N1CCOCC1` [CBK076224], the viability at 28.5 h, 10 µM turned out to be 91.7%.

In the case of `CN(C)CCN(C)C(=O)c1ccc(-c2cccc(OC(F)(F)F)c2)nc1N(C)C` [CBK106081], the viability at 28.5 h, 10 µM came out at 90.3%.
